Data on one compound can be found in US8642631B2, “Methods of treating mammals with eustachian tube dysfunctions” (University of Melbourne, priority 2008, dated 2014).

This experiment relates to Eustachian tube. In words: Eustachian tube function test (middle ear pressure equalisation on reflex swallowing) in anaesthetised rats. Type of experiment: in vivo, Sprague Dawley rats. The protocol:
Animal experiments were conducted on female and male adult Sprague Dawley rats weighing 250-450 g. Up to five animals were used in each section of the experiment. In this figure, a small tube is glued into the tympanic bulla of an anaesthetised rat (A). The tube is connected to a syringe pump (B), a pressure transducer (C) and data recorder (D) and to a manometer (E). The syringe pump is used to increase pressure within the middle ear. […] From this it can be seen that intra-bulla pressure was increased from ambient (Amb) to around 130 mm of water. […] The overall pressure drop is a measure of the efficiency of pressure equalisation via the Eustachian tube. Each experiment consisted of a series of active Eustachian tube function tests preceded by a passive run. In the passive run pressure was increased in the bulla by a continuous air flow (30 ml/min) until the Eustachian tube opened spontaneously. While the air continued to flow, the pressure in the middle ear decreased until the Eustachian tube closed. Now the pressure in the middle ear, due to continued air flow, could build up again until the Eustachian tube opened a second time. This enabled the measurement of the passive opening and closing pressures of the Eustachian tube. The active runs consisted of three preceding control runs (C1-C3) followed by three runs assessing the effect of intervention S1-S6. At the start of each active run the pressure in the bulla was raised to 75% of the passive opening pressure of the Eustachian tube. At this point the air flow into the bulla was stopped. […] This caused reflex swallowing, which was accompanied by a momentary opening of the Eustachian tube, and reduced middle ear pressure step by step. In each active run 10 consecutive swallows were recorded. […]

Regarding `CNCCc1ccccn1` [betahistine, N-methyl-2-pyridineethanaamine], the “increase in efficiency of Eustachian tube pressure equalisation” value (anaesthetised rats, betahistine applied within the tympanic bulla and flushed through the Eustachian tube, FIG. 4) is “around 30%”. For the setting “anaesthetised rats, systemic (intraperitoneal) injection, cumulative doses 1, 5 and 10 μl, total 16 μl, FIG. 5”, the “effect on ET function” value is on record as “no significant effect”. Also, under “healthy anaesthetised rats, betahistine diHCl 5 μl of 8 mg/mL (Vasomotal) applied to the nasopharynx, normalized to control measurement C3, FIG. 3”, the “increase in efficiency of pressure equalisation through the Eustachian tube” value stood at 31%.
